From patent publication US6586241B1, “Methods to identify compounds affecting mitochondria” (Johns Hopkins University, priority 1998, dated 2003)
Entries after “also recorded” stand apart in the source; their conditions may differ. Read-outs that look alike come from different tables or passages of the source. One block for each compound: values may come before it.

Legend:
[1] = test system: rabbit ventricular myocytes; test: Simulated ischemia (cell pelleting) and cellular injury, trypan blue; assay type: cell-based; conditions: for cytotoxicity at 50 µM: Oryctolagus cuniculus, Ventricular myocyte, 50 μM diazoxide, read-out: cells killed (% of viable cells prior to ischemia)
Protocol: In the following Examples, the procedure to determine cell injury was modified from […] al. […]., et al., “An in vitro model of myocardial ischemia utilizing isolated adult rat myocytes”, J. Mol. Cell Cardiol, 1990, 22: 165-181. After cell isolation, cells were washed with incubation buffer (in mM): NaCl 119, NaHCO3 25, KH2PO4 1.2, KCl 4.8, MgSO4 1.2, HEPES 10, glucose 11, and supplemented with creatine, taurine and amino acids (pH 7.4). Calcium was added into the buffer stepwise (0.25 mM every 5 minutes) to a final concentration of 1 mM. An aliquot of each cell suspension (0.5 ml) was placed in a 0.5 ml microcentrifuge tube and centrifuged for 20 seconds into a pellet. Each pellet occupied a volume of about 0.2 ml. Approximately 0.25 ml of excess supernatant was removed to leave a thin fluid layer above the pellet, and 0.2 ml of mineral oil was layered on the top of the pellet to exclude gaseous diffusion. After 60 min and 120 min of pelleting, 5 μl of cell pellet were sampled through the oil layer and mixed with 75 µl of 85 mOsm hypotonic staining solution (in mM): […] Microscopic examination was performed 2-5 min after mixing to determine the permeability of the cells to trypan blue. Cells permeable to trypan blue were counted as dead and expressed as a percentage of the total cells counted (>200 for each sample). The killing of cells by ischemia was quantified as percentage of the vital cells at the beginning of each experiment (78-90% of total, mean=82±1% n=24). The small percentage of cells ( 18%) that were non-viable at the beginning of the experiment were mostly rounded and had been damaged as a known consequence of the enzymatic isolation process. Mitra, R., et al., “A uniform enzymatic method for dissociation of myocytes from hearts and stomachs of vertebrates”, Am. J. Physiol, 1985, 249: […]-[…]. Individual experiments in each of four groups were performed on cells isolated from different hearts. In the control group (Cont), cells were pelleted and sampled at the 60 min and 120 min. For the diazoxide-treated group (Diazo), 50 μM of diazoxide was added into the solution 15 min before the pelleting. In the third group (5-HD), 100 μM of 5-HD was added into the cell suspension 20 min prior to pelleting. Cells in the Diazo+5HD group were treated the same as in the third group except that 50 μM of diazoxide was added into the cell suspension 15 min before pelleting. Once applied, drugs were not washed out, and thus were present throughout the period of simulated ischemia.

[2] = test system: mitochondrial flavoprotein oxidation (mitochondrial KATP channels); test: Flavoprotein fluorescence measurement of mitochondrial redox state in intact ventricular myocytes; assay type: cell-based, rabbit
Description: (§1) In the following Examples, ventricular myocytes were isolated from adult rabbit hearts by conventional enzymatic dissociation, according to Liu, Y., et al., “Synergistic modulation of ATP-sensitive K^+ currents by protein kinase C and adenosine: implications for ischemic preconditioning”, Circ. Res., 1996, 78: 443-454, then washed several times with calcium-free solution. […].
(§2) For whole-cell patch recordings, the internal pipette solution contained (in mM): 120 K-glutamate, 25 KCI, 0.5 MgCl2, 10 K-EGTA, 10 HEPES and 1 MgATP (pH 7.2 with KOH). The external solution included (in mM): 140 NaCl, 5 KCI, 1 CaCl2, 1 MgCl2, and 10 HEPES (pH 7.4 with NaOH). Whole-cell currents were elicited every 6 sec from a holding potential of −80 mV by two consecutive steps to −40 mV (for 100 msec) and 0 mV (for 380 msec). Currents at 0 mV were measured 200 msec into the pulse. Endogenous flavoprotein fluorescence was excited using a xenon arc lamp with a bandpass filter centered at 480 nm, but only during the 100 msec step to −40 mV t to minimize photobleaching. Emitted fluorescence was recorded at 530 nm by a photomultiplier tube and digitized (Digidata 1200, Axon Instruments). (See Paucek, P., et al., “Cardioprotective effect of diazoxide and its interaction with mitochondrial KATP: possible mechanism of cardioprotection”, J. Mol Cell Cardiol, 1997, 29: A199(Abstract)). Relative fluorescence was averaged during the excitation window and calibrated using the values after dinitrophenol (DNP) and sodium cyanide (CN) exposure.

[3] = molecular target: T1, sarcolemmal KATP channels (Oryctolagus cuniculus, UniProt O02822+P82451); test: Whole-cell patch recording of sarcolemmal KATP current (IKATP); assay type: cell-based, rabbit; conditions: for activation of IKATP: treatment with diazoxide and 5-HD, FIG. 4
T1 construct: ventricular myocytes were isolated from adult rabbit hearts by conventional enzymatic dissociation; endogenous in cells; host or cells: primary adult rabbit ventricular myocytes
Description: as §1, §2

intact hearts = conditions: Paucek et al. 1997; cited from earlier work
[4] = test system: mitochondria of ventricular myocytes; assay type: cell-based, rabbit; conditions: sequential exposure diazoxide, DNP, CN; FIG. 8
Protocol: In the following Examples, Confocal images were obtained using a Diaphot 300 inverted fluorescence microscope with a PCM-2000 confocal scanning attachment (Nikon, Inc.). Fluorescence was excited by the 488 nm line of an argon laser and the emission at 505-535 nm was recorded. A time series of images was collected at intervals of ˜10 sec and baseline, diazoxide, DNP and CN images were enhanced by averaging 8-10 sequential images having stable mean fluorescence intensities during the exposure to each agent.
To localize mitochondria, cells were loaded with 100 nM TMRE, which distributes into negatively charged cellular compartments, for 10 min., (Lemasters, J. J., et al., “Measurement of electrical potential, pH, and free calcium ion concentration in mitochondria of living cells by laser scanning confocal microscopy”, in Anonymous: Methods in Enzymology., New York, Academic Press, 1995, pp 429-417). TMRE fluorescence was excited with the 535 nm line of a helium neon laser and recorded at greater than 605 nm. A pseudocolor palette was applied to visualize the relative increase in mitochondrial flavoprotein oxidation state.
Images were analyzed on a personal computer using the software program ImageTool (University of Texas Health Sciences Center in San Antonio). All the recordings were performed at room temperature (21-22° C.).

T1 sequence (P82451 whole entry): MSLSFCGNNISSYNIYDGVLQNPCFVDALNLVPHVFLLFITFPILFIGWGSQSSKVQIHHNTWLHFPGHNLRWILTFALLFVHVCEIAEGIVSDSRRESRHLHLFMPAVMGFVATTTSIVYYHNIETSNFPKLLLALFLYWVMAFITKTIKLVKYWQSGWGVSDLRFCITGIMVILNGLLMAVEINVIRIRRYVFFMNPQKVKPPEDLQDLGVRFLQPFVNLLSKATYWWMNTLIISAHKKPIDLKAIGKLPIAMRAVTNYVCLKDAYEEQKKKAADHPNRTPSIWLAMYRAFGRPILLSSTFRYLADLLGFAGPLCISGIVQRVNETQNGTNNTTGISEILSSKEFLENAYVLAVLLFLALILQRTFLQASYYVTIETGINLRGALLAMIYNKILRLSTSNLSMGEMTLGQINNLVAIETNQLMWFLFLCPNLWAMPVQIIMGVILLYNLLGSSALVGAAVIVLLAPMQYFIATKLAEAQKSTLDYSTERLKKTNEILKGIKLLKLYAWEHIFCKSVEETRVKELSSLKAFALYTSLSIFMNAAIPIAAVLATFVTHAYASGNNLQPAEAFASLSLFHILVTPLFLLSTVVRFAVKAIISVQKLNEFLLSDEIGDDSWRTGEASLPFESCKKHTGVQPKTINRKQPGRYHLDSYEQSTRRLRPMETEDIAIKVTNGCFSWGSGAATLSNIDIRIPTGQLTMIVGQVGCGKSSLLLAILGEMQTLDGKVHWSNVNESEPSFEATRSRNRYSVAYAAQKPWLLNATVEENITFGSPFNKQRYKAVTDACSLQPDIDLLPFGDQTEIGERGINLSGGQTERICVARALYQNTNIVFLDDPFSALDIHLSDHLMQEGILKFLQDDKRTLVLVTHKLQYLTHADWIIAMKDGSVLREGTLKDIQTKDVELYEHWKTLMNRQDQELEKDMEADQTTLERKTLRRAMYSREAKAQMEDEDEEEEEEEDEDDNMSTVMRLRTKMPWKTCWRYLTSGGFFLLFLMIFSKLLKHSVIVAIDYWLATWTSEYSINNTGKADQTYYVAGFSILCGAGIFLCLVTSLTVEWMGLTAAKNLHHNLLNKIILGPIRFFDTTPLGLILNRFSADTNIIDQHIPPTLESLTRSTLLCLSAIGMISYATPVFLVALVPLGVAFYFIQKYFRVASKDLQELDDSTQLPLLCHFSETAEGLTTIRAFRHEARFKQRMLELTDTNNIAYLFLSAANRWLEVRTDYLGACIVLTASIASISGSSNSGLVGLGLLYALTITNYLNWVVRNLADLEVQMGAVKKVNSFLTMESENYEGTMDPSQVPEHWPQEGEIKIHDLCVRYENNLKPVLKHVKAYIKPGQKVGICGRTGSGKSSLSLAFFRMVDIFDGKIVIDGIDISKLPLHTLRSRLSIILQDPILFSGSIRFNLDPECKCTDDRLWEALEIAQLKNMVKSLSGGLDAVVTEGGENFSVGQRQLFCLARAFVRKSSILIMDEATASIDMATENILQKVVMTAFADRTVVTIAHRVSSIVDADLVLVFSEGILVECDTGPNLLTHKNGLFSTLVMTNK
T1 sequence (O02822 whole entry): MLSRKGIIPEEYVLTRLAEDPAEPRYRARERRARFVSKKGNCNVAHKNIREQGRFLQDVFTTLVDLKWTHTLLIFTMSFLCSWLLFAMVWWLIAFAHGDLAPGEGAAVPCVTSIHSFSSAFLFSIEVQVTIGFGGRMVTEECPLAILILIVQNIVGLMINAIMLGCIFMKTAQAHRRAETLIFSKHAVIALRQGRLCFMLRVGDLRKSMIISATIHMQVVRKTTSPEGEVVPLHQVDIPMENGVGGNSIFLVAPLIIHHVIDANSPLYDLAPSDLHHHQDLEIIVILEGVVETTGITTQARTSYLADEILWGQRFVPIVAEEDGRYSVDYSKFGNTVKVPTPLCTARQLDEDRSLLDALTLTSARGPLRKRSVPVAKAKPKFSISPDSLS

activation of IKATP [3]: did not activate
SMILES: CCCCCC(O)CCCC(=O)O.[Na] (centres unmarked) [5-HD, 5-hydroxydecanoic acid sodium]
block of the protection by diazoxide ([1]; 100 μM 5-HD): completely blocked
attenuation of the oxidative effect of diazoxide ([2]; 100 μM 5-HD in the presence of diazoxide, FIG. 3): about half
block of flavoprotein oxidation induced by diazoxide ([2]; FIG. 2a): reversibly blocks
flavoprotein oxidation, % of the DNP value ([2]; diazoxide in the presence of 500 μM 5-HD, FIG. 3): 8±3%

sarcolemmal IKATP ([3]; pinacidil 100 μM, measured at 0 mV, FIG. 6B): 0.74±0.54 nA
SMILES: CC(N/C(=N\C#N)Nc1ccncc1)C(C)(C)C (centres unmarked) [pinacidil]
mitochondrial oxidation ([2]; pinacidil 100 μM, FIG. 6A): 35±8%

EC50 ([2]; Oryctolagus cuniculus, Ventricular myocyte, FIG. 5, 5-6 cells per point, read-out: EC50 to induce mitochondrial oxidation): 27 µM
activation of IKATP [3]: did not activate
SMILES: CC1=NS(=O)(=O)c2cc(Cl)ccc2N1 [diazoxide]
cardioprotective EC25 (intact hearts): 11 µM
cytotoxicity at 50 µM ([1]; 1 h, 60 min simulated ischemia): 18 ± 3%
cytotoxicity at 50 µM ([1]; 2 h, 120 min simulated ischemia): 23 ± 4%
protection of ventricular myocytes compared with preconditioning ([1]; cellular ischemia model): to the same extent as preconditioning
mitochondrial oxidation, % of the DNP value ([2]; 100 μM, first exposure DIAZO(1), FIG. 3): 48±3%
oxidation of the flavoproteins (flavoprotein fluorescence) ([2]; 100 μM, FIG. 1A): induced reversible oxidation
mitochondrial oxidation ([2]; diazoxide exposure in the same cell as pinacidil): 41±5%
flavoprotein oxidation, % of the DNP value ([2]; second exposure DIAZO(2) after washout, same cells, FIG. 3): 43±5%
activation of IKATP / membrane currents ([3]; 100 μM, FIG. 1B): did not activate; also recorded: unchanged
flavoprotein fluorescence, confocal images [4]: increased fluorescence in strips parallel to the myofibril orientation

SMILES: COc1ccc(Cl)cc1C(=O)NCCc1ccc(S(=O)(=O)NC(=O)NC2CCCCC2)cc1 [Glybenclamide]
block of the protection from diazoxide ([1]; 1 μM glybenclamide, data not shown): blocked the protection
